The values below come from patent publication US20030153506A1, “Combination product comprising melagatran and factor VIIa inhibitor” (priority 2000, published 2003).

One assay deals with Platelet poor plasma. The assay is described as follows: APTT clotting time in spiked platelet poor plasma, synergy model (Berenbaum). Type of assay: biochemical, human. To be noted: for concentration of A required to reach the same APTT prolongation as that of the mixture (Ae): calculated from Eq 1; for concentration of B required to reach the same APTT prolongation as that of the mixture (Be): calculated from Eq 2. The method, then:
Human blood from healthy volunteers, both men and women, was collected in 50 mL conical plastic tubes containing 5 mL of 0.13 mol/L of buffered tri-sodium citrate. The blood was immediately chilled on ice and centrifuged at […] for 20 minutes. Platelet poor plasma was then divided into fractions of 10 mL each and “spiked” with melagatran (Compound A) or with the title compound of Example 1 above (Compound B) to a final concentration that prolonged APTT by approximately 20%, 40%, 60% and 100%, respectively.
APTT was determined as follows: 100 μL of pre-warmed APTT reagent (Stago Diagnostica) was added to 100 μL of pre-warmed plasma and incubated for 180 s at 37° C. Coagulation was initiated by the addition of 100 μL of CaCl2 (0.025 mol/L). The clotting time was measured with a KC 10 Coagulometer, coupled to a CR-A calculator, CR 10 printer and PR60 heat block (Amelung GmbH, Lemago Germany). Each clotting test was performed in duplicate and the mean clotting time was used.
APTT for Compound A and Compound B were tested at 4 different concentrations and the results are shown in Table 1, in which Cp A and Cp B are the plasma concentrations of Compounds A and B, respectively. APTT values are expressed in seconds and, within brackets, as percentage prolongation over the baseline value.
In order to test a possible synergistic effect between Compounds A and B the following model was used. The concentrations of Compounds A and B that caused about 20%, 40% and 60% prolongation of APTT were first determined (Table 1). Equipotent concentrations of Compounds A and B, e.g. 0.08 μmol/L of A and 1.5 μmol/L of B, were then mixed and APTT for the mixtures were determined as above. An indication of synergy is obtained if APTT for this mixture is longer than APTT for a “mixture” of equipotent concentrations of Compound A itself (i.e. Compound A+Compound A at a concentration that prolongs APTT by 20% (0.08 μmol/L+0.08 μmol/L=0.16 μmol/L)). However, a true synergistic effect between two compounds can never be established unless the dose response curves for both individual compounds are known and all data applied to the algebraic model of Berenbaum's equation (see Clin. Exp. Immunol. (1977) 28, 18): […]
(Cp A in mixture/Ae)+(Cp B in mixture/Be)<1
In this equation, CpA and CpB are the plasma concentrations of Compounds A and B, respectively in the mixture, and Ae and Be are individual concentrations of Compounds A and B that are required to obtain the same APTT results as that of the mixture. These concentrations can be calculated from the linear dose-responses for Compounds A and B, respectively (Equations 1 and 2).

In the next assay the target is T1, Human α-thrombin (Homo sapiens, UniProt P00734).
T1 construct: Human α-thrombin, Sigma Chemical Co. or Hematologic Technologies; purchased Sigma Chemical Co. or Hematologic Technologies
The assay is described as follows: Test B: thrombin inhibition, chromogenic robotic assay. To be noted: S-2366 0.30 mmol/L, 40 min 37° C. Type of assay: biochemical. As to the method: Determination of Thrombin Inhibition with a Chromogenic, Robotic Assay
Thrombin inhibitor potency was measured with a chromogenic substrate method, in a Plato 3300 robotic microplate processor (Rosys AG, CH-8634 Hombrechtikon, Switzerland), using 96-well, half volume microtitre plates (Costar, Cambridge, Mass., U.S.A.; Cat No 3690). Stock solutions of test substance in DMSO (72 μL), 0.1-1 mmol/L, were diluted serially 1:3 (24+48 μL) with DMSO to obtain ten different concentrations, which were analysed as samples in the assay. 2 μL of test sample was diluted with 124 μL assay buffer, 12 μL of chromogenic substrate solution (S-2366, Chromogenix, Mölndal, Sweden) in assay buffer and finally 12 μL of α-thrombin solution (Human α-thrombin, Sigma Chemical Co. or Hematologic Technologies) in assay buffer, were added, and the samples mixed. The final assay concentrations were: test substance 0.00068-13.3 μmol/L, S-2366 0.30 mmol/L, α-thrombin 0.020 NIHU/mL. The linear absorbance increment during 40 minutes incubation at 37° C. was used for calculation of percentage inhibition for the test samples, as compared to blanks without inhibitor. The IC50-robotic value, corresponding to the inhibitor concentration which causes 50% inhibition of the thrombin activity, was calculated from a log concentration vs. % inhibition curve.

The next assay has as its system human plasma. The assay is described as follows: Test C: prothrombin time (PT) assay. The assay is classed as biochemical. To be noted: Thromborel S, doubling of the clotting time. As to the method: Prothrombin Time (PT) Assay
The following reagents were prepared: An aliquot of a frozen human plasma pool, containing citrate as an anticoagulant, was rapidly thawed at 37° C. A 10 mM stock solution of the inhibitor in DMSO was diluted with saline containing 0.1% BSA to a final 1% of DMSO. Series dilutions were made in steps of 1:3 for a dose response titration. Thromborel® S from Dade Behring GmbH (Marburg, Germany), was reconstituted 1:10 with 25 mM CaCl2, according to the instructions of the manufacturer. 2.5μL of inhibitor was mixed with 22.5 μL human plasma, incubated for 1 min. at 37° C. in the cup of an Amelung KC10 microcoagulometer from Heinrich Amelung GmbH (Lemgo, Germany). Coagulation was initiated by addition of 50 μL Thromborel S, which was pre-warmed at 37° C. The time to clot was determined (CTI) for each inhibitor concentration ([I]) in duplo. A titration curve was made by plotting the inverse clotting time versus the inhibitor concentration. The IC50 value, the time to double the clotting time, was determined by non-linear regression to the equation:
CT0/CTI=1/(1+([I]/IC50)^S)
where “CT0”=the clotting time without inhibitor added, and “s” the slope.

Assay [1] deals with T2, Recombinant human factor VIIa (Homo sapiens, UniProt P08709).
T2 construct: Recombinant human factor VIIa (rFVIIa, product no 407); purchased American Diagnostica Inc. product no 407 (rFVIIa); product no 4500 (rTF)
Kind of assay: Test A: chromogenic robot method for Factor VIIa. The assay is classed as biochemical. As to the method: Chromogenic Robot Method for Factor VIIa:
The chromogenic substrate Spectrozyme FVIIa, CH3SO2-D-CHA-But-Arg-pNA (pefachrome 5979 from Pentapharm, Switzerland) was purchased from American-Diagnostica Inc. (Greenwich, Conn., U.S.A.). The KM under the conditions of the assay was determined separately. Recombinant human factor VIIa (rFVIIa, product no 407) and non-lipidated recombinant human tissue-factor (rTF, product no 4500) were purchased from American Diagnostica Inc. The stock solutions of rFVIIa (1.08 mg protein dissolved with 1 mL water to 21.6 μM in 20 mM Tris-HCl, 100 mM NaCl, pH 7.4) and rTF (1 mg protein with 1.5 mL water to 19 μM in 50 mM Tris-HCl, pH 8.0, 150 mM NaCl, CHAPS (3-((3-cholamidopropyl)dimethylammoniol)-1-propanesulphonate; 10 mM) and 200 mM mannitol) were stored in 0.5 mL reagent tubes at −80° C. […] After mixing and incubation for 40 minutes at 37° C., the optical absorbance difference was read at 405 nm. The IC50 value for each compound was calculated by non-linear regression to the equation:
Where AI=the final absorbance at 405 nm in the presence of the inhibitor, A0=in the absence of inhibitor, and s the slope in the dose titration curve, which has the theoretical value of 1 for a pure competitive inhibitor. […]

[2] abbreviates: mixture 0.08 (A) + 1.5 (B) μmol/L.
The mark [3] stands for this setting: mixture 0.18 (A) + 3.2 (B) μmol/L.
Setting [4] is: mixture 0.27 (A) + 4.9 (B) μmol/L.

T2 sequence (P08709 213-466 limits assumed): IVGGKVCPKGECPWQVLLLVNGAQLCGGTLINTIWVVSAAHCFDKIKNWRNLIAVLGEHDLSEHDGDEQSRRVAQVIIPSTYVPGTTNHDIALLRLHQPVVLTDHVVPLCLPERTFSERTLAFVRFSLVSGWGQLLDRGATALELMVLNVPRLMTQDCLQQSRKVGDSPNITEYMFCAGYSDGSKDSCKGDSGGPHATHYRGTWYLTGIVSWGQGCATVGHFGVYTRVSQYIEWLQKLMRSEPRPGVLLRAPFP
T2 sequence (P08709 61-212 limits assumed): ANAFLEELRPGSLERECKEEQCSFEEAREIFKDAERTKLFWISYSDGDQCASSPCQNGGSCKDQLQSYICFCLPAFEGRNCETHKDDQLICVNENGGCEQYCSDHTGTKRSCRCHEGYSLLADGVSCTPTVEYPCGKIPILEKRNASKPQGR
T2 sequence (P13726 33-295 partner): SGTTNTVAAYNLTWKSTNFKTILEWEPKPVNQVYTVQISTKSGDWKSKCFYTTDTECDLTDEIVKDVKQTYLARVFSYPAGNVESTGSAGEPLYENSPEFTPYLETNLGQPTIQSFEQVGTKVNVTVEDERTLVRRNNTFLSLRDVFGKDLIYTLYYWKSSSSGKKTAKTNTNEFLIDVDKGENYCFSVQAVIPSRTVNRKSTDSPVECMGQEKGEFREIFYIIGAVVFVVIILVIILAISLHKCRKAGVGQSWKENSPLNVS

In the case of `N=C(N)c1ccc(CNC(=O)[C@@H]2CCN2C(=O)[C@H](NCC(=O)O)C2CCCCC2)cc1` [Compound A, HOOC—CH2—(R)Cgl-Aze-Pab-H], the APTT was determined as 51.8 s with Platelet poor plasma (Compound A + A, 0.08 + 0.08 = 0.16 μmol/L); 62.4 s in the assay on Platelet poor plasma (Compound A + A, 0.18 + 0.18 = 0.36 μmol/L); 71.9 s with Platelet poor plasma (Compound A + A, 0.27 + 0.27 = 0.54 μmol/L); 45.8 s in the assay with Platelet poor plasma (Cp A 0.08 μmol/L, baseline 36.8 s); 53.8 s in the assay on Platelet poor plasma (Cp A 0.18 μmol/L, baseline 36.8 s); 59.2 s in the assay with Platelet poor plasma (Cp A 0.27 μmol/L, baseline 36.8 s). The APTT in the assay with Platelet poor plasma (Cp A 0.56 μmol/L, baseline 36.8 s) was found to be 72.1 s. In addition, the “APTT percentage prolongation over the baseline value” came out at 24% with Platelet poor plasma (Cp A 0.08 μmol/L), 46% in the assay on Platelet poor plasma (Cp A 0.18 μmol/L), 61% with Platelet poor plasma (Cp A 0.27 μmol/L) and 96% in the assay with Platelet poor plasma (Cp A 0.56 μmol/L). For the same molecule, the “concentration of A required to reach the same APTT prolongation as that of the mixture (Ae)” value in the assay on Platelet poor plasma (setting [2]) is 0.21 µmol/L; with Platelet poor plasma (setting [3]), 0.53 µmol/L; in the assay on Platelet poor plasma (setting [4]) it was 0.83 µmol/L.
`CC(C)C[C@H](NC(=O)[C@H](NS(=O)(=O)Cc1cccc(C(=O)O)c1)C(C)C)C(=O)NCc1ccc(C(=N)N)cc1` [Example 1, N-[(3-Carboxybenzyl)sulfonyl]-D-valyl-N^1-{4-[amino(imino)methyl]-benzyl}-L-leucinamide]: the “APTT percentage prolongation over the baseline value” is given as 26% in the assay on Platelet poor plasma (Cp B 1.50 μmol/L), 44% with Platelet poor plasma (Cp B 3.20 μmol/L), 62% with Platelet poor plasma (Cp B 4.90 μmol/L) and 105% in the assay with Platelet poor plasma (Cp B 8.30 μmol/L). Further, the APTT with Platelet poor plasma (Cp B 1.50 μmol/L, baseline 35.7 s) amounted to 45.2 s; in the assay with Platelet poor plasma (Cp B 3.20 μmol/L, baseline 35.7 s), 51.5 s; in the assay on Platelet poor plasma (Cp B 4.90 μmol/L, baseline 35.7 s), 57.7 s; with Platelet poor plasma (Cp B 8.30 μmol/L, baseline 35.7 s), 73.3 s. Also, the results for the “concentration of B required to reach the same APTT prolongation as that of the mixture (Be)” value with Platelet poor plasma (setting [2]), in the assay with Platelet poor plasma (setting [3]) and in the assay on Platelet poor plasma (setting [4]) were 3.87 µmol/L, 7.98 µmol/L and 11.80 µmol/L, respectively. Besides, the IC50 (as a rule, the concentration that inhibits the measured activity by half) was determined as 6.2 µM against Human α-thrombin; 3.8 µM with human plasma; 0.064 µM in assay [1] (Test A, rFVIIa-rTF, Spectrozyme FVIIa 0.2 mM, 40 min 37° C.). The “selectivity for Factor VIIa” value in assay [1] (conclusion from Tests A, B and C) is recorded as “selective inhibitor of Factor VIIa”.
